The values below come from patent publication US20080019949A1, “DIFFERENTIATION OF STEM CELLS FROM UMBILICAL CORD MATRIX INTO […] CELLS” (UNIVERSITY OF KANSAS, priority 2006, published 2008).

In data set [1] the test system is differentiated and undifferentiated HUMCs. The experiment in a line: Cellular uptake of Indocyanine Green (ICG). The data set is classed as cell-based, human. As to conditions: 1 mg/mL ICG concentration. As for the experimental part: Cellular uptake of Indocyanine Green (ICG.): ICG was dissolved to an initial concentration of 5 mg/mL in solvent. The solution was then diluted to 1 mg/mL in maturation media and added to the culture dish and incubated at 37° C. in a humidified incubator at 5% CO2 for 10-15 minutes. The cells were washed thoroughly with sterile PBS and then visualized under a light microscope. After examination, the PBS was then removed and maturation media was added and the cells incubated at 37° C. in a humidified incubator at 5% CO2 for ˜4-6 hours to confirm elimination of ICG.

Data set [2] has as its system differentiated HUCM cells (hepatocyte-like cells).
Method: RNA isolation and Reverse Transcription Polymerase Chain Reaction (RT-PCR.): RNA was isolated from cells on RNeasy Quick spin columns (Qiagen, Valencia, Calif.) and converted to cDNA using random hexamers and SuperScript II reverse transcriptase (Invitrogen, Carlsbad, Calif.). PCR was performed using a BioRad I-Cycler. Products were resolved by 2% agarose gel electrophoresis and visualized by ethidium bromide staining. Expression of numerous hepatocyte-specific genes was analyzed, including CK18, cytokeratin 18; HNF3-β, hepatocyte nuclear factor 3β; CK19, cytokeratin 19; AFP, alpha fetoprotein; Alb, albumin; and CYP2B6, cytochrome P450 2 family.
Cytochromes were induced by treatment with; Rifamicin (RIF), 20 um; Penobarbital (PB), 2 mM; forskolin, 50 uM; 8-Bromo-cAMP, 1 mM (Tocris, Ellisville, Mo.); and vehicle controls for 24-hour period. mRNA was then harvested and then analyzed by RT-PCR.

Take `CC1(C)C(/C=C/C=C/C=C/C=C2\N(CCCCS(=O)(=O)O)c3ccc4ccccc4c3C2(C)C)=[N+](CCCCS(=O)(=O)[O-])c2ccc3ccccc3c21` [ICG, Indocyanine Green]: the “adverse effects on cells” value in data set [1] is on record as “no adverse effects were observed”.
As for `C=C[C@@]1(C)CC(=O)[C@]2(O)[C@@]3(C)[C@@H](O)CCC(C)(C)[C@@H]3[C@H](O)[C@H](OC(C)=O)[C@@]2(C)O1` [forskolin], the “expression of inducible markers (CAR, PXR, PGC-1, PEPCK, PPAR-γ, CYP3A4, HNF4α)” value in data set [2] is “showed a number of hepatocyte-inducible genes or an increase in expression levels”.
For the compound `CCC1(c2ccccc2)C(=O)NC(=O)NC1=O` [PB, phenobarbital], in data set [2], the “CYP3A4 expression (RT-PCR)” value is reported as “induced”; the “PXR expression (RT-PCR)” value is listed as “induced”; the “expression of inducible markers (CAR, PXR, PGC-1, PEPCK, PPAR-γ, CYP3A4, HNF4α)” value was “showed a number of hepatocyte-inducible genes or an increase in expression levels”.
